Source: ChEMBL document CHEMBL4350997, “The synthesis and anticancer activity of 2-styrylquinoline derivatives. A p53 independent mechanism of action” (Eur J Med Chem, 2019)
In brackets after ≈: the same amount, converted by molar mass.

Tests used:
HCT-116 [1] = test: Cytotoxicity against human HCT116 cells deficient in p53 incubated for 72 hrs by MTS assay; conditions: HCT-116, 72 h
HCT-116 [2] = test: Cytotoxicity against human HCT116 cells expressing wild type p53 incubated for 72 hrs by MTS assay; conditions: HCT-116, 72 h
U-251 = test: Cytotoxicity against human U251 cells harboring mutant TP53 gene incubated for 72 hrs by MTS assay; format: functional, cell-based; conditions: U-251, 72 h
PANC-1 = test: Cytotoxicity against human PANC1 cells harboring mutant TP53 gene incubated for 72 hrs by MTS assay; format: functional, cell-based; conditions: PANC-1, 72 h
NHDF = test: Cytotoxicity against human NHDF cells incubated for 72 hrs by MTS assay; format: cell-based
HCT-116 [3] = test: Anticancer activity against human HCT116 cells deficient in p53 assessed as inhibition of cell proliferation; format: functional, cell-based
HCT-116 [4] = test: Anticancer activity against human HCT116 cells assessed as inhibition of cell proliferation
HepG2 = test: Anticancer activity against human HepG2 cells assessed as inhibition of cell proliferation; format: functional, cell-based
MCF7 = test: Anticancer activity against human MCF7 cells assessed as inhibition of cell proliferation; format: functional, cell-based
ASPC1 = test: Cytotoxicity against human AsPC1 cells deficit of P53 gene incubated for 72 hrs by MTS assay; format: functional, cell-based; conditions: ASPC1, 72 h

Oc1cccc2ccc(/C=C/c3c(F)cccc3Cl)nc12
IC50 (HCT-116 [1]): > 25 µM | IC50 (HCT-116 [2]): > 25 µM

COc1ccc(/C=C/c2nc(NCCCN(C)C)c3ccccc3n2)cc1
IC50 (U-251): 18.8 µM | IC50 (HCT-116 [1]): 26.3 µM | IC50 (PANC-1; read-out: IC50): > 25 µM | IC50 (HCT-116 [2]): 18.6 µM | IC50 (NHDF): 12.3 µM

Oc1cccc2ccc(/C=C/c3ccccc3F)nc12
IC50 (HCT-116 [3]): 8.4 µM

CC(=O)Oc1ccccc1/C=C/c1ccc2cccc(O)c2n1
IC50 (HCT-116 [1]): 13.5 µM | IC50 (HCT-116 [2]): 7.32 µM | IC50 (NHDF): 6.92 µM | IC50 (HCT-116 [4]): 7.3 µM

CN(C)c1ccc(/C=C/c2cc(-c3nnc(N)s3)c3cc(Br)ccc3n2)cc1
IC50 (HepG2): 9 µg/mL (≈ 19.9 µM)

COc1cccc2c(Nc3ccc(/C(C)=N/O)cc3)cc(/C=C/c3ccccc3)nc12
IC50 (MCF7): > 4 µg/mL

Oc1ccc(/C=C/c2ccc3cccc(O)c3n2)cc1
IC50 (HCT-116 [1]): 16.6 µM | IC50 (HCT-116 [2]): 13.5 µM | IC50 (NHDF): > 25 µM

COc1cccc2c1C(=O)c1c(O)c3c(c(O)c1C2=O)C[C@@](O)(C(=O)CO)C[C@@H]3O[C@H]1C[C@H](N)[C@H](O)[C@H](C)O1 [DOXORUBICIN]
IC50 (U-251): 0.05 µM | IC50 (HCT-116 [1]): 0.38 µM | IC50 (PANC-1): 0.73 µM | IC50 (ASPC1): 0.86 µM | IC50 (HCT-116 [2]): 0.34 µM | IC50 (NHDF): 0.14 µM

O=c1[nH]cc(F)c(=O)[nH]1 [FLUOROURACIL]
IC50 (HCT-116 [1]): 4.69 µM | IC50 (HCT-116 [2]): 4.42 µM | IC50 (NHDF): > 25 µM
